Measurements published in patent US20140378408A1, “NUCLEOSIDE 5'-PHOSPHOROTHIOATE ANALOGUES AND USES THEREOF” (BAR-ILAN UNIVERSITY, an Israeli University, priority 2012, published 2014).

Columns and labels:
TNAP = target: T1, TNAP (Homo sapiens, UniProt P05186); experiment: Hydrolysis by TNAP; type: in vitro ADME; conditions: 1 h
T1 sequence (P05186 18-501): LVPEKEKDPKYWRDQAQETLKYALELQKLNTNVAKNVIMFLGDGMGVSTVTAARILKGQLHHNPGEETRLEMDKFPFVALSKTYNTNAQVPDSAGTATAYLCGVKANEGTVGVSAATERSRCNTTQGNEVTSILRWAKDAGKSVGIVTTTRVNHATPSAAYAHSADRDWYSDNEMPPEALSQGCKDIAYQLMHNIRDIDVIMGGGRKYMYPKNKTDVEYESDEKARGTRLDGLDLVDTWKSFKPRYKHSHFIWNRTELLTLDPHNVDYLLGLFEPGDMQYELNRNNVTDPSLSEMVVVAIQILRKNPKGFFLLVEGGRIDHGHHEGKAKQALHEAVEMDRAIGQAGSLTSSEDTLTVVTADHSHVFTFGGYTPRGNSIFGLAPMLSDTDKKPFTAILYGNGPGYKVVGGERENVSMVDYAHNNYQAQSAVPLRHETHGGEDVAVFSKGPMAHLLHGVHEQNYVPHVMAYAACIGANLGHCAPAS
Source text: The metabolic stability of APPCCl2P-α-S (isomer A) and APCPP-γ-S was further proven by their resistance to enzymatic hydrolysis by TNAP.

human P2Y1-R = target: T2, human P2Y1-R (Homo sapiens, UniProt P47900); experiment: [Ca^2+]i response of 1321N1 astrocytoma cells expressing P2Y1-R GFP; type: cell-based; conditions: for EC50: agonist, read-out: EC50 at the P2Y1 receptor
T2 construct: expressed in transfected cells; host or cells: 1321N1 astrocytoma cells
Method: GFP constructs of human P2Y2-R, P2Y1-R and P2Y11-R were stably expressed in 1321N1 astrocytoma cells, which lack endogenous expression of P2X- and P2Y-receptors. The respective cDNA of the receptor gene was cloned into a pEGFPN1 vector and after transfection, using FuGENE 6 Transfection Reagent (Roche Molecular Biochemicals, Mannheim, Germany), cells were selected with 0.5 mg/ml G418 (geneticine; Merck Chemicals, Darmstadt, Germany) and grown in DMEM supplemented with 10% serum (FCS), 100 U/ml penicillin and 100 U/ml streptomycin at 37° C. and 5% CO2. The expression and cell membrane localization of the respective P2Y receptors was confirmed through the analysis of the GFP fluorescence. The functionality of the expressed GFP-labeled receptor in cells was verified by recording a change of [Ca^2+]i after stimulation with the appropriate receptor agonist.
1321N1 astrocytoma cells transfected with the respective plasmid for P2Y-R-GFP expression plated on coverslips (22 mm diameter) and grown to approximately 80% density, were incubated with 2 μM fura 2/AM and 0.02% pluronic acid in Na-HBS buffer (Hepes buffered saline: 145 mM NaCl, 5.4 mM KCl, 1.8 mM CaCl2, 1 mM MgCl2, 25 mM glucose, 20 mM Hepes/Tris pH 7.4) for 30 min at 37° C. The cells were superfused (1 ml/min, 37° C.) with different concentrations of nucleotide in Na-HBS buffer. The nucleotide-induced change of [Ca^2+] was monitored by detecting the fluorescence intensities with excitations at 340 nm and 380 nm. Only GFP-labeled cells were analyzed. Microsoft Excel (Microsoft Corp., Redmond, Wash., USA) and SigmaPlot (SPSS Inc., Chicago, Ill., USA) were used to derive the concentration-response curves and EC50 values from the average response amplitudes obtained in at least three independent experiments (Ecke et al., 2006; Ecke et al., 2008). Only cells with a clear GFP-signal and with the typical calcium response kinetics upon agonist pulse application were included in the data analysis. The nucleotide induced change of [Ca^2+]i was monitored by detecting the respective emission intensity of fura 2/AM at 510 nm with 340 nm and 380 nm excitations (Ubl et al., 1998). The average maximal amplitude of the responses and the respective standard errors were calculated from ratio of the fura 2/AM. The GFP-tagged P2Y receptors are suitable for pharmacological and physiological studies, as previously reported (Tulapurkar et al., 2004; Tulapurkar et al., 2006; Zylberg et al., 2007).

[1] = Affinity to Zn^2+ ions (log K); type: physicochemical
Aβ40-Cu^2+ aggregates = target: T3, Aβ40-Cu^2+ aggregates (Homo sapiens, UniProt P05067); experiment: DLS, size reduction of Aβ40-Cu^2+ aggregates
T3 construct: purchased GL-Biochem (Shanghai)
Method: PBS buffer, Aβ40, chelator, Zn(NO3)2, and Cu(NO3)2 solutions were filtered through a […] PVDF syringe filter. 496 μM Aβ40 solution in 10 mM PBS (pH 7.4) and 2 mM Zn(NO3)2 solution were mixed to obtain 200 μM Aβ40-Zn^2+ (1:1 ratio) of a cloudy solution. Similarly, 2 mM Cu(NO3)2 solution was added to 496 μM Aβ40 in 10 mM PBS (pH 6.6). Aβ40-Zn^2+/Cu^2+ (10 μl) solution was transferred to Eppendorf tubes containing 10 mM PBS buffer (64 or 67 μl) followed by the addition of 3 and 6 eq of 2 mM nucleotide (6 or 3 μl) solution and incubation for 45 min at RT. The resulting mixture was incubated for another 30 min at RT and DLS data were then collected in a 70 μl disposable cuvette. The final sample concentrations were 25 μM Aβ40, 25 μM Zn^2+ or Cu^2+, and 150 or 75 μM nucleotide.
Monomeric Aβ40 was incubated with either Cu^2+ or Zn^2+ for 45 min to form a 1:1 peptide metal-ion complex. […] For the Aβ40-Zn^2+ particles the instrument readings indicated a different size distribution. […] We evaluated the capacity of the phosphorothioate analogues to dissolve Aβ40-Cu^2+ or Zn^2+ aggregates, as compared to EDTA and clioquinol known for their ability to dissolve Aβ-M^2+ aggregates (Ritchie et al., 2003; Huang et al., 1997). The reduction of dH of Aβ40-Cu^2+ aggregates by EDTA, clioquinol, or tested compounds was compared to the dH of Aβ-Cu^2+ aggregate itself (FIG. 5A). In addition, the efficacy of the chelators ATP-γ-S, ADP-β-S, APCPP-γ-S and GDP-β-S to resolubilize Aβ40-Cu^2+ and Aβ40-Zn^2+ is described in FIGS. 5B and 5C relative to EDTA and clioquinol. EDTA efficiency in reducing Aβ particle size is considered as 100%.

T2 sequence (P47900 whole entry): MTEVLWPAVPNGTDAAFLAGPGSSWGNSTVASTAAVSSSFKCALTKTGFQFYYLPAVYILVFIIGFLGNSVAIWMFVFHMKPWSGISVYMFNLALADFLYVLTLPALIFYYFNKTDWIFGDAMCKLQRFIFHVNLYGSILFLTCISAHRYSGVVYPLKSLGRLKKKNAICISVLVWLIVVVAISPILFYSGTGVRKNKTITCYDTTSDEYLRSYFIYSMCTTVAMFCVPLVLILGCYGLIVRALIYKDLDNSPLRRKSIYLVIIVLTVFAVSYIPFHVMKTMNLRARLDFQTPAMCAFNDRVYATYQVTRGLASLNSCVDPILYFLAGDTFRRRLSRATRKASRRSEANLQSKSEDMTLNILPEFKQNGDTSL
T3 sequence (P05067 672-711 limits assumed): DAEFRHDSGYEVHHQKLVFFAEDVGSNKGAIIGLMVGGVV

## Nc1ncnc2c1ncn2[C@@H]1O[C@H](COP(O)(=S)OP(=O)(O)C(Cl)(Cl)P(=O)(O)O)[C@@H](O)[C@H]1O (single isomer, unassigned; isomer a) [APPCCl2P-α-S (isomer A), adenosine 5′-[Pα-thio]-β,γ-(dichloromethylene)triphosphate]
TNAP
  Hydrolysis by TNAP: fully stable

## Nc1ncnc2c1ncn2[C@@H]1O[C@H](COP(O)(=S)OP(=O)(O)C(Cl)(Cl)P(=O)(O)O)[C@@H](O)[C@H]1O (single isomer, unassigned) [APPCCl2P-α-S, adenosine 5′-[Pα-thio]-β,γ-(dichloromethylene)triphosphate]
Human P2Y1-R
  EC50: > 10 µM
[1]
  log K (Zn^2+): 6.5
  times higher affinity to Zn^2+ ions as compared to ATP: 50

## Nc1ncnc2c1ncn2[C@@H]1O[C@H](COP(=O)(O)OP(O)(O)=S)[C@@H](O)[C@H]1O [ADP-β-S, adenosine 5′-[β-thio]diphosphate, reference compound]
Aβ40-Cu^2+ aggregates
  fold better than GDP-β-S in reducing dH of Aβ40-Cu^2+ aggregates: 5.4 fold

## Nc1ncnc2c1ncn2[C@@H]1O[C@H](COP(=O)(O)CP(=O)(O)OP(O)(O)=S)[C@@H](O)[C@H]1O [APCPP-γ-S, adenosine 5′-[Pγ-thio]-α,β-methylenetriphosphate]
Human P2Y1-R
  no activity at the P2Y1 receptor up to (concentration): up to 10 μM
  EC50: > 10 µM
Aβ40-Cu^2+ aggregates; aggregate alone 1836 nm, 25 μM Aβ40-Cu^2+, pH 6.6
  dH (particle size) of Aβ40-Cu^2+ after chelator: 64 nm
TNAP
  Hydrolysis by TNAP: 2.5%
